Measurements reported in publication PMC9669442, “Discovery of novel inhibitors targeting nematode chitinase CeCht1: Virtual screening, biological evaluation, and molecular dynamics simulation” (Frontiers in Chemistry, 2022).

Molecular target: T1, CeCht1 (CeCht1-CAD) (Caenorhabditis elegans, UniProt Q11174)
T1 construct: gene cht-1; secreted/overexpressed in Pichia pastoris GS115, purified as in Chen Q. et al. 2021; catalytic residues Asp175, Asp177, Glu179
Assay: end-point fluorescence assay, 4-methylumbelliferone release
Assay type: biochemical
Settings: not given
Source text: end-point fluorescence assay, 4-methylumbelliferone release on CeCht1 (CeCht1-CAD)

T1 sequence (Q11174 52-431): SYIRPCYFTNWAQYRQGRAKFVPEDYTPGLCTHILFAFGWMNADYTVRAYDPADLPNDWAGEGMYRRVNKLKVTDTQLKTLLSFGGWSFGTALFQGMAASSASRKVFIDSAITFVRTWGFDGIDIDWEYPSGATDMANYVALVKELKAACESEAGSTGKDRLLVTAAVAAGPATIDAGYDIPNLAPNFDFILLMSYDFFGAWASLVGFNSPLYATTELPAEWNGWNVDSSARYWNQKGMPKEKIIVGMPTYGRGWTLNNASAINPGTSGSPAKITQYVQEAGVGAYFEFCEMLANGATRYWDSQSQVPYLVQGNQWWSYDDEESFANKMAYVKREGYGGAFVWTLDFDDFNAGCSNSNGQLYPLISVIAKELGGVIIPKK

Point of comparison: `COc1ccc2cc(C(C)NC(=O)Cn3nnnc3CN3CCCC3)ccc2c1` (stereo not shown) [HAU-7], IC50 10 ± 2.6 µM. Against it:
- CCn1c(=N)c(C(=O)NCCc2ccc(OC)cc2)cc2c(=O)n3cccc(C)c3nc21 [HAU-4, 1-ethyl-3-((4-methoxyphenethyl)carbamoyl)-10-methyl-5-oxo-1,5-dihydro-2H-dipyrido [1,2-a:2′,3′-d] pyrimidin-2-iminium] — 2.4-fold lower, 4.2 ± 0.5 µM

Same assay, conditions: 4 μM 4-MU-(GlcNAc)2, 10 nM enzyme, 20 mM sodium phosphate pH 6.0, 1% DMSO, 25 °C, 20 min

Point of comparison: `COc1ccc(OC)c(-c2nc(C(=O)NCC3CCCO3)cc3c2[nH]c2ccccc23)c1` (stereo not shown) [HAU-9], “Inhibition rate at 10 μM (%)” value 39.4 ± 3.3%. Against it:
- CCOc1ccc2ccccc2c1/C=N/NC(=O)CNC(=O)c1ccc2c(c1)OCCO2 [HAU-15] — lower, 2.0 ± 0.8%
- Cc1ccc(OCc2cc(=O)n3c4c(sc3n2)CCCC4)c(NC(=O)CC(C)C)c1 [HAU-1] — lower, 30.4 ± 2.5%
- CCOc1cccc(CNC2CC(C)(C)Cc3c2cnn3-c2ccc(C)cc2)c1O (stereo not shown) [HAU-11] — within error, 34.9 ± 1.6%
- Cc1ccc2nc(SCc3noc(CCC(=O)Nc4ccc(C)c(C)c4)n3)[nH]c2c1 [HAU-3] — lower, 0.4 ± 0.2%
